Source: US4250176A, “Piperazine derivatives” (priority 1979, dated 1981)
Values after ≈ are worked out from the molar mass of the structure shown. Counter-ions that a name gives are not always drawn. Like-named read-outs stand apart in the source and are kept apart here.

What was measured:
[1] = test system: histamine paw oedema in guinea pigs; test: Histamine paw oedema in guinea pigs; assay type: in vivo, guinea pig; settings: Cavia porcellus, oral dose giving paw reaction below 10 units 10 minutes after 50 μg histamine s.p., 2 hours after dosing, read-out: Anaphylaxis in guinea pigs oral effective dose in mg/kg: Histamine oedema
Experimental: Guinea pigs, weighing between 400 and 500 g, are sensitized to ovalbumin by subplantar (s.p.) injection of 0.05 ml of antiserum in the left hind paw. The animals are then starved and orally treated, 24 hours after the sensitization, with saline (=control animals) or a particular dose of the compound under investigation. The histamine injection (at a dose of 50 μg) was given s.p. in the right hind paw 2 hours after the oral pretreatment with the compound.

[2] = test system: Guinea pigs sensitized to ovalbumin (anaphylactic shock); test: Anaphylaxis in guinea pigs: protection against death after ovalbumin challenge (survival); assay type: in vivo, guinea pig; settings: Cavia porcellus, estimated ED50, oral, protection against death after i.v. 0.6 mg ovalbumin, read-out: Anaphylaxis in guinea pigs oral effective dose in mg/kg: Survival
Experimental: The anti-anaphylactic and antihistaminic effects of the subject compounds (I) and salts thereof are studied "in vivo" in guinea pigs.
Guinea pigs, weighing between 400 and 500 g, are sensitized to ovalbumin by subplantar (s.p.) injection of 0.05 ml of antiserum in the left hind paw. The animals are then starved and orally treated, 24 hours after the sensitization, with saline (=control animals) or a particular dose of the compound under investigation.
The histamine injection (at a dose of 50 μg) was given s.p. in the right hind paw 2 hours after the oral pretreatment with the compound. The diameters of both hind paws are first measured before the histamine injection is given and again 10 minutes thereafter. The animals are challenged intravenously with 0.6 mg of ovalbumin 30 minutes after the histamine injection. All control animals develop typical primary anaphylactic shock symptoms (coughing, difficult breathing, convulsions) and 85% of these control animals die within 15 minutes after the ovalbumin injection. Protection against death is used as the criterion for possible drug effects and the estimated ED50 -value, i.e. the oral dose whereby the protection is observed in 50% of the guinea pigs, is listed in the tables below.

[3] = test system: Guinea-pig ileum strips, histamine-induced contraction; test: Anti-histamine activity in "vitro": histamine-induced spasms of guinea-pig ileum strips; assay type: cell-based; settings: Cavia porcellus, 5 min, histamine 0.5 mg/liter, 5 minutes incubation, concentration giving significant inhibition (50%) of the contraction
Experimental: The histamine--(0.5 mg/liter) induced spasms are recorded Kymographically with an isotonic lever giving a 5-fold magnification.

[4] = Table I-a, read-out: Histamine in "vitro" (ileum) effective conc.
[5] = Table I-d, read-out: Histamine in "vitro" (ileum) effective dose

Structure (SMILES)	minimal effective dose ([1]; Table I-a) [mg/kg]	ED50 ([2]; Table I-a) [mg/kg]	IC50 [3, 4] [µg/mL]	further results
O=c1[nH]c2ccccc2n1CCCN1CCN(C(c2ccccc2)c2ccc(Br)cc2)CC1 (stereo not drawn) [1-[3-{4-[(4-bromophenyl)phenylmethyl]-1-piperazinyl}propyl]-1,3-dihydro-2H-benzimidazol-2-one]	< 2.5	< 2.5	0.16 (≈ 0.317 µM)	
Cc1ccc(C(c2ccc(F)cc2)N2CCN(CCCn3c(=O)[nH]c4ccccc43)CC2)cc1 (stereo not drawn) [1-[3-{4-[(4-fluorophenyl)-(4-methylphenyl)methyl]-1-piperazinyl}propyl]-1,3-dihydro-2H-benzimidazol-2-one]	< 2.5	< 2.5	0.16 (≈ 0.349 µM)	
O=c1[nH]c2ccccc2n1CCCN1CCN(C(c2ccc(Cl)cc2)c2ccc(Cl)cc2)CC1 [1-[3-{4-[bis(4-chlorophenyl)methyl]-1-piperazinyl}propyl]-1,3-dihydro-2H-benzimidazol-2-one]	< 2.5	< 2.5	0.16 (≈ 0.323 µM)	
O=c1[nH]c2ccccc2n1CCCN1CCC(OC(c2ccc(F)cc2)c2ccc(F)cc2)CC1 [1-[3-{4-[bis(4-fluorophenyl)methoxy]-1-piperidinyl}propyl]-1,3-dihydro-2H-benzimidazol-2-one hydrochloride.hemihydrate]				minimal effective dose ([1]; Table I-d): 0.63 mg/kg; ED50 ([2]; Table I-d): 0.63 mg/kg; IC50 [3, 5]: 0.0025 µg/mL
CC(CN1CCN(C(c2ccc(F)cc2)c2ccc(F)cc2)CC1)Cn1c(=O)[nH]c2ccccc21 (stereo not drawn) [1-[3-{4-[bis(4-fluorophenyl)methyl]-1-piperazinyl}-2-methylpropyl]-1,3-dihydro-2H-benzimidazol-2-one]	1.25	1.25	0.02 (≈ 0.042 µM)	
CC(CN1CCN(C(c2ccc(F)cc2)c2ccc(F)cc2)CC1)Cn1cnc2ccccc21 (stereo not drawn) [1-[3-{4-[bis(4-fluorophenyl)methyl]-1-piperazinyl}-2-methylpropyl]-1H-benzimidazole trihydrochloride.hemihydrate]				minimal effective dose ([1]; Table I-b): 1.25 mg/kg; ED50 ([2]; Table I-b): 0.63 mg/kg; IC50 ([3]; Table I-b, read-out: Histamine in "vitro" (ileum) effective conc.): 0.02 µg/mL
O=c1[nH]c2ccccc2n1CCCN1CCN(C(c2ccc(F)cc2)c2ccc(F)cc2)CC1 [1-[3-{4-[bis(4-fluorophenyl)methyl]-1-piperazinyl}propyl]-1,3-dihydro-2H-benzimidazol-2-one]	0.16	0.31	0.01 (≈ 0.0216 µM)	
O=c1[nH]c2cc(Cl)ccc2n1CCCN1CCN(C(c2ccc(F)cc2)c2ccc(F)cc2)CC1 [1-[3-{4-[bis(4-fluorophenyl)methyl]-1-piperazinyl}propyl]-5-chloro-1,3-dihydro-2H-benzimidazol-2-one]	1.25	1.25	0.04 (≈ 0.0805 µM)	
O.O=c1[nH]c2ccc(Cl)cc2n1CCCN1CCN(C(c2ccc(F)cc2)c2ccc(F)cc2)CC1 [1-[3-{4-[bis(4-fluorophenyl)methyl]-1-piperazinyl}propyl]-6-chloro-1,3-dihydro-2H-benzimidazol-2-one hydrate]	1.25	0.63	0.02	
O=c1[nH]c2ccccc2n1CCCN1CCN(C(c2ccccc2)c2cccc(Cl)c2)CC1 (stereo not drawn) [1-[3-{4-[α-(3-chlorophenyl-α-phenylmethyl]-1-piperazinyl}propyl]-1,3-dihydro-2H-benzimidazol-2-one]	1.25	0.63	0.01 (≈ 0.0217 µM)	
O=c1[nH]c2ccccc2n1CCCN1CCN(C(c2ccc(Cl)cc2)c2ccccc2F)CC1 (stereo not drawn) [1-[3-{4-[α-(4-chlorophenyl)-α-(2-fluorophenyl)]-1-piperazinyl}propyl]-1,3-dihydro-2H-benzimidazol-2-one]	1.25	0.31	0.02 (≈ 0.0418 µM)	
O=c1[nH]c2ccccc2n1CCCN1CCN(C(c2ccccc2)c2ccc(Cl)cc2)CC1 (stereo not drawn) [1-[3-{4-[α-(4-chlorophenyl)-α-phenylmethyl]-1-piperazinyl}propyl]-1,3-dihydro-2H-benzimidazol-2-one]	0.63	1.25	0.01 (≈ 0.0217 µM)	
O=c1[nH]c2ccccc2n1CCCN1CCN(C(c2ccccc2)c2ccc(F)cc2)CC1 (stereo not drawn) [1-[3-{4-[α-(4-fluorophenyl)-α-phenylmethyl]-1-piperazinyl}propyl]-1,3-dihydro-2H-benzimidazol-2-one]	0.31	0.31	0.01 (≈ 0.0225 µM)	
O=c1[nH]c2ccccc2n1CCCCN1CCN(C(c2ccc(F)cc2)c2ccc(F)cc2)CC1 [1-[4-{4-[bis(4-fluorophenyl)methyl]-1-piperazinyl}-butyl]-1,3-dihydro-2H-benzimidazol-2-one dihydrochloride.hydrate.hemiethanolate]	0.31	0.16	0.01	
O=c1[nH]c2ccccc2n1CCCCCN1CCN(C(c2ccc(F)cc2)c2ccc(F)cc2)CC1 [1-[5-{4-[bis(4-fluorophenyl)-methyl]-1-piperazinyl}pentyl]-1,3-dihydro-2H-benzimidazol-2-one dihydrochloride.hydrate]	2.5	1.25	0.01	
CC(=O)n1c(=O)n(CCCN2CCN(C(c3ccccc3)c3ccccc3)CC2)c2ccccc21 [1-acetyl-3-{3-[4-(diphenylmethyl)-1-piperazinyl]propyl}-1,3-dihydro-2H-benzimidazol-2-one]	0.31	0.1	0.005 (≈ 0.0107 µM)	
Cl.O=c1[nH]c2ccccc2n1CCN1CCC(OC(c2ccccc2)c2ccccc2)CC1 [1-{2-[4-(diphenylmethoxy)-1-piperidinyl]ethyl}-1,3-dihydro-2H-benzimidazol-2-one hydrochloride]				minimal effective dose ([1]; Table I-d): 0.16 mg/kg; ED50 ([2]; Table I-d): 0.31 mg/kg; IC50 [3, 5]: 0.0025 µg/mL
O=c1[nH]c2cc(C(F)(F)F)ccc2n1CCN1CCN(C(c2ccccc2)c2ccccc2)CC1 [1-{2-[4-(diphenylmethyl)-1-piperazinyl]ethyl}-1,3-dihydro-5-(trifluoromethyl)-2H-benzimidazol-2-one]	1.25	0.31	0.02 (≈ 0.0416 µM)	
Cc1ccc2c(c1)[nH]c(=O)n2CCN1CCN(C(c2ccccc2)c2ccccc2)CC1 [1-{2-[4-(diphenylmethyl)-1-piperazinyl]ethyl}-1,3-dihydro-5-methyl-2H-benzimidazol-2-one]	1.25	1.25	0.01 (≈ 0.0234 µM)	
O=c1[nH]c2ccccc2n1CCCN1CCC(OC(c2ccccc2)c2ccccc2)CC1 [1-{3-[4-(diphenylmethoxy)-1-piperidinyl]-propyl}-1,3-dihydro-2H-benzimidazol-2-one]				minimal effective dose ([1]; Table I-d): 1.25 mg/kg; ED50 ([2]; Table I-d): 0.63 mg/kg; IC50 [3, 5]: 0.0025 µg/mL (≈ 0.00566 µM)
c1ccc(C(OC2CCN(CCCn3cnc4ccccc43)CC2)c2ccccc2)cc1 [1-{3-[4-(diphenylmethoxy)-1-piperidinyl]propyl}-1H-benzimidazole]				minimal effective dose ([1]; Table I-d): 0.16 mg/kg; ED50 ([2]; Table I-d): 0.16 mg/kg; IC50 [3, 5]: 0.0025 µg/mL (≈ 0.00587 µM)
C=C(C)n1c(=O)n(CCCN2CCN(C(c3ccccc3)c3ccccc3)CC2)c2ccccc21 [1-{3-[4-(diphenylmethyl)-1-piperazinyl]propyl}-1,3-dihydro-3-(1-methylethenyl)-2H-benzimidazol-2-one]	0.31	0.16	0.01 (≈ 0.0214 µM)	
O=c1n(CO)c2ccccc2n1CCCN1CCN(C(c2ccccc2)c2ccccc2)CC1 [1-{3-[4-(diphenylmethyl)-1-piperazinyl]propyl}-1,3-dihydro-3-(hydroxymethyl)-2H-benzimidazol-2-one]	0.31	0.31	0.01 (≈ 0.0219 µM)	
Cl.Cl.O=c1n(CCCN2CCN(C(c3ccccc3)c3ccccc3)CC2)c2ccccc2n1Cc1ccccc1 [1-{3-[4-(diphenylmethyl)-1-piperazinyl]propyl}-1,3-dihydro-3-(phenylmethyl)-2H-benzimidazol-2-one dihydrochloride]	1.25	1.25	0.16	
